# Results published in ChEMBL document CHEMBL4725400, “Natural product-inspired aryl isonitriles as a new class of antimalarial compounds against drug-resistant parasites” (Bioorg Med Chem, 2020).
# Test system: Plasmodium falciparum
# Assay: Antimalarial activity against Plasmodium falciparum W2 assessed as inhibition of parasite growth
# Assay type: functional, organism-based
# Conditions: not given
row,SMILES,EC50 [µM]
1,[C-]#[N+][C@]1(C)[C@H](C)C[C@@H]2C[C@H](C)[C@H]3CC[C@](C)([N+]#[C-])[C@H]4CC[C@H]1[C@@H]2[C@H]34 [DIISOCYANOADOCIANE],0.013
2,[C-]#[N+][C@@H]1[C@H](C(C)C)CC[C@@H](C)[C@@]12C=C(C)CC2 [AXISONITRILE 3],0.071
3,CC1=C[C@]2(CC1)[C@H](C)CC[C@@H](C(C)C)[C@H]2N=C=S,11.8

# Test system: not listed separately
# Assay: Selectivity index, ratio of MTD for cytotoxicity against human HaCaT cells to EC50 for antimalarial activity against blood stage chloroquine-resistant Plasmodium falciparum Dd2 infected in human erythrocytes
# Assay type: toxicity, cell-based
# Conditions: read-out: Selectivity Index
row,SMILES,selectivity ratio
1,[C-]#[N+]c1ccc(/C=C/c2ccncc2)cc1,1450
2,[C-]#[N+]c1ccc(/C=C/c2ccc([N+]#[C-])cc2)cc1,4740

# Test system: not listed separately
# Assay: Selectivity index, ratio of IC50 for cytotoxicity against human KB cells to EC50 for antiplasmodial activity against Plasmodium falciparum W2
# Assay type: toxicity, cell-based
# Conditions: read-out: Selectivity Index
row,SMILES,selectivity ratio
1,[C-]#[N+][C@]1(C)[C@H](C)C[C@@H]2C[C@H](C)[C@H]3CC[C@](C)([N+]#[C-])[C@H]4CC[C@H]1[C@@H]2[C@H]34 [DIISOCYANOADOCIANE],1000

# Test system: Plasmodium falciparum
# Assay: Antimalarial activity against blood stage chloroquine-resistant Plasmodium falciparum Dd2 infected in human erythrocytes assessed as inhibition of parasite growth incubated for 72 hrs by SYBR Green I dye based staining analysis
# Assay type: functional, organism-based
# Conditions: Dd2, Erythrocyte
row,SMILES,EC50 [µM]
1,[C-]#[N+]c1ccccc1/C=C(\CC)c1ccc(F)cc1,9.84
2,[C-]#[N+]c1ccccc1/C=C/c1ccccc1F,3.68
3,[C-]#[N+]c1cccc(/C=C/c2ccccc2)c1,5.32
4,[C-]#[N+]c1ccccc1/C=C/c1ccc(C(F)(F)F)cc1,5.8
5,[C-]#[N+]c1ccc(CCc2ccc([N+]#[C-])cc2)cc1,0.22
6,[C-]#[N+]c1ccc(CCc2ccccc2[N+]#[C-])cc1,0.44
7,[C-]#[N+]c1ccccc1/C=C/c1cccc(C(F)(F)F)c1,0.27
8,[C-]#[N+]c1ccccc1/C=C(\CC)c1ccc(C(F)(F)F)cc1,7.69
9,[C-]#[N+]c1ccccc1/C=C/c1ccccc1C(F)(F)F,4.31
10,[C-]#[N+]c1ccccc1/C=C/c1cccnc1,13
11,[C-]#[N+]c1cccc(/C=C/c2cccnc2)c1,0.69
12,[C-]#[N+]c1ccc(/C=C/c2ccccn2)cc1,10.3
13,[C-]#[N+]c1ccccc1/C=C/c1ccccn1,7.53
14,[C-]#[N+]c1ccccc1/C=C(\CCCC)c1ccccc1,5.25
15,[C-]#[N+]c1ccccc1/C=C(\CCC)c1ccccc1,3.06
16,[C-]#[N+]c1ccc(/C=C/c2ccnc3ccccc23)cc1,6.98
17,[C-]#[N+]c1ccc(/C=C/c2ccccc2[N+]#[C-])cc1,0.068
18,[C-]#[N+]c1ccc(/C=C/c2cccnc2)cc1,5.18
19,[C-]#[N+]c1ccccc1/C=C(\CC)c1ccccc1,10.6
20,[C-]#[N+]c1ccc(/C=C/c2ccco2)cc1,2.66
21,CC/C(=C\c1ccccc1)c1ccccc1,> 100
22,[C-]#[N+]c1ccccc1-c1ccc2ccccc2c1,6.21
23,[C-]#[N+]c1ccccc1/C=C/c1ccc(F)cc1,0.56

row,SMILES,EC50 [µM]
1,[C-]#[N+]c1ccc(/C=C/c2cccc(OC)c2)cc1,1.01
2,[C-]#[N+]c1ccc(/C=C/c2ccc3ccccc3n2)cc1,5.25
3,[C-]#[N+]c1ccc(/C=C/c2ccncc2)cc1,0.088
4,[C-]#[N+]c1ccc(/C=C/c2cc(OC)cc(OC)c2)cc1,1.62
5,[C-]#[N+]c1ccccc1/C=C/c1cccc(OC)c1,6.45
6,[C-]#[N+]c1ccccc1/C=C(\CC)c1cccc(C(F)(F)F)c1,5.41
7,[C-]#[N+]c1cccc(/C=C/c2ccccn2)c1,9.73
8,[C-]#[N+]c1ccc(/C=C/c2ccccc2)cc1,2.77
9,[C-]#[N+]c1ccccc1C=C(c1ccccc1)c1ccccc1,3.62
10,[C-]#[N+]c1ccc(CCc2ccncc2)cc1,0.56
11,[C-]#[N+]c1ccccc1/C=C/c1ccccc1OC,21.6
12,[C-]#[N+]c1ccc(/C=C/c2ccc(C(F)(F)F)cc2)cc1,2.17
13,[C-]#[N+]c1ccc(/C=C/c2ccc([N+]#[C-])cc2)cc1,0.027
14,[C-]#[N+]c1ccccc1/C=C/c1ccncc1,3.7
15,[C-]#[N+]c1ccccc1/C=C/c1ccccc1,11.5
16,[C-]#[N+]c1ccccc1-c1ccccc1,10.8
17,[C-]#[N+]c1ccc(/C=C/c2cccc([N+]#[C-])c2)cc1,0.266
18,[C-]#[N+]c1ccccc1/C=C/c1ccc(OC)cc1,3.07
19,[C-]#[N+]c1ccc(/C=C/c2ccc(F)cc2)cc1,4.69
20,[C-]#[N+]c1ccc(/C=C/c2ccc(Cl)c(Cl)c2)cc1,3.21
21,[C-]#[N+]c1ccc(/C=C/c2ccc(OC)cc2)cc1,2.27
22,[C-]#[N+]c1ccccc1/C=C/c1cccc(F)c1,12.4
23,[C-]#[N+]c1ccc(CCc2cccc([N+]#[C-])c2)cc1,2.75
